The results in this text go back to publication PMC8853709, “Synthesis, computational studies, tyrosinase inhibitory kinetics and antimelanogenic activity of hydroxy substituted 2-[(4-acetylphenyl)amino]-2-oxoethyl derivatives” (Journal of Enzyme Inhibition and Medicinal Chemistry, 2019).

The structures appear in SMILES notation. Entries after “also recorded” stand apart in the source; their conditions may differ. Where two headings read alike, the source gives them in different places.

The target in data set [1] is T1, mushroom tyrosinase (EC 1.14.18.1) (Agaricus bisporus, UniProt C7FF04).
T1 construct: purchased Sigma Chemical Co., ST; Louis, MO
Put plainly: Mushroom tyrosinase inhibition assay (L-DOPA, dopachrome absorbance). It counts as biochemical, Agaricusbisporus. The method, then:
The mushroom tyrosinase (EC 1.14.18.1) (Sigma Chemical Co., ST. Louis, MO) was used for in vitro bioassays as described previously with some modifications[39]^,[40]. Briefly, 140 µL of phosphate buffer (20 mM, pH 6.8), 20 µL of mushroom tyrosinase (30 U/mL) and 20 µL of the inhibitor solution were placed in the wells of a 96-well micro plate. After pre-incubation for 10 min at room temperature, 20 µL of L-DOPA (3,4-dihydroxyphenylalanine) (0.85 mM) was added and the plate was further incubated at 25 °C for 20 min. Subsequently the absorbance of dopachrome was measured at 492 nm using a micro plate reader (OPTI Max, Tunable). Kojic acid was used as a reference inhibitor and for negative tyrosinase inhibitor phosphate buffer was used instead of the inhibitor solution. The extent of inhibition by the test compounds was expressed as the percentage of concentration necessary to achieve 50% inhibition (IC50). Each concentration was analysed in three independent experiments run in triplicate. The IC50 values were determined by the data analysis and graphing software Origin 8.6, 64-bit.

The target in another data set is T2, mushroom tyrosinase (Agaricus bisporus, UniProt C7FF04).
T2 construct: purchased Sigma Chemical Co., ST; Louis, MO
Briefly: Kinetic analysis of the inhibition of mushroom tyrosinase (Lineweaver–Burk, Dixon, enzyme concentration plots). The conditions noted are these: for type of inhibition (Lineweaver–Burk plot) / Ki: diphenolase activity, L-DOPA; for Ki: read-out: dissociation constant Ki (Dixon plot); for mode of binding (reversibility of enzyme–inhibitor complex): remaining enzyme activity versus enzyme concentration 1.25, 2.5 and 5 µg/mL. The format is biochemical, Agaricusbisporus. The method, then: To understand the mechanism of mushroom tyrosinase inhibition by compounds 5c and 5d, kinetic studies were conducted. […] Enzyme inhibition kinetics was analysed by Lineweaver–Burk plot and Dixon plots to determine the type of inhibition and inhibition constant (KI).
The inhibitory mechanism of mushroom tyrosinase by compounds 5c (in concentrations: 0.0, 0.0011, 0.0022, 0.0045, 0.0090 and 0.018 µM) and 5d (in concentrations: 0.0, 1.75, 3.5, 7.0, 14, 28 and 56 µM) were investigated.
A series of experiments were performed to determine the inhibition kinetics by following method[41]^,[42]. Inhibitor 5c with concentrations […], 0.0022, 0.0045, 0.009, 0.018 µM and 5d with concentrations 0.0, 1.75, 3.5, 7, 14 and 28 µM, respectively, were used. Substrate L-DOPA concentration was among 0.0625–2 mM in all kinetic study. Pre-incubation and measurement time was the same as discussed in mushroom tyrosinase inhibition assay protocol. The formation of DOPAchrome was continuously monitored at 475 nm for 5 min at a 30 s interval in the microplate reader after addition of enzyme. The inhibition type on the enzyme was assayed by Lineweaver–Burk plots of inverse of velocities (1/V) versus inverse of substrate concentration 1/[S] mM^−1, and the inhibition constant Ki was determined by the Dixon plot of 1/V versus inhibitor concentrations.

Data set [2] in a line: MTT cell viability assay and cell morphology. It counts as cell-based, murine. The conditions noted are these: mouse, B16F10 murine melanoma cells, B16F10, 24 µg/ml, read-out: toxic effect in MTT cell viability assay, compared to control normalized to 100%. The method, then: (§1) To test the safety level of 5c compound, MTT assay (3-(4,5-dimethylthiazol-2-yl)-2,5-diphenyltetrazolium Bromide) was performed. The murine melanoma (B16F10) cells (1.5 × 10^5 cells/ml) were seeded in 24 well plates (SPL Korea) with DMEM medium at 37 °C and 5% CO2 incubator. Test compound 5c was dissolved in DMSO and diluted with culture medium to get the final concentrations of 0 (control), 6, 12 and 24 µg/ml, and then added to the cells for 24 h further incubation. The MTT assay was then conducted, and results were calculated in percentage of control. In addition, cellular images were taken by inverted fluorescent microscope (Nikon, ECLIPSE, Tokyo, Japan) to access the 5c effect on cell morphology.
Background: Tetrazolium dyes change colour on reduction, which living cells bring about.

The subject of data set [3] is murine melanoma (B16F10) cells. Briefly: MTT cell viability assay and cell morphology. The conditions noted are these: 24 h. The format is cell-based. The method, then:
as §1

The test system of data set [4] is murine melanoma (B16F10) cells. Briefly: Melanin content measurement. It counts as cell-based. The method, then: For melanin measurement, melanoma (1.5 × 10^5) cells were seeded in cell culture plates for 24 h at 37 °C and 5% CO2incubator. Then cells were incubated with various concentrations of 5c in cell culture medium for further 24 h. Later, assay for melanin measurement was performed following already reported method. Briefly, the cells were trypsinised and centrifuged for 5 min at 1000 rpm. The cell pellet was dissolved in 1 N NaOH at 60 °C for 1 h and melanin content was measured spectrophotometrically at 405 nm wavelengths using a microplate reader (BioTek, synergy HT, Winooski, VT).

[5] abbreviates: L-DOPA substrate, pH 6.8, 25 °C, read-out: Mushroom tyrosinase inhibition IC50.

T2 sequence (C7FF04 2-392): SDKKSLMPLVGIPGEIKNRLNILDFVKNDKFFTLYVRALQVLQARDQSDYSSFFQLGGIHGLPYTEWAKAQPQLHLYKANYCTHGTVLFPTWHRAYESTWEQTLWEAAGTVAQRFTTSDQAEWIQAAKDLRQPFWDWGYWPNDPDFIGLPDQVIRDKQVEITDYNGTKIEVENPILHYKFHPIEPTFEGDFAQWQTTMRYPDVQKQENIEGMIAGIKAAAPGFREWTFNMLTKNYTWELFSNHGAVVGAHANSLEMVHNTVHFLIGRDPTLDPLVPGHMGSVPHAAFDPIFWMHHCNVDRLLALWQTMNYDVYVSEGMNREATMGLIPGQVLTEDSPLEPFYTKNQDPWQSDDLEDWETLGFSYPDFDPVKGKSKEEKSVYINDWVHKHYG
T1 sequence (C7FF04 2-392): as above

What is called IC50 is the concentration that inhibits the measured activity by half. Turning to `CC(=O)c1ccc(NC(=O)CCl)cc1` [Compound 1], in data set [1], the IC50 is 54.5 ± 3.1 µM.
Same read-out and setting: the value for `CC(=O)c1ccc(NC(=O)COC(=O)c2cccc(O)c2)cc1` [Compound 3a, 2-[(4-Acetylphenyl)amino]-2-oxoethyl 3-hydroxybenzoate] was 325 ± 16.9 µM.
`CC(=O)c1ccc(NC(=O)COC(=O)c2ccc(O)cc2)cc1` [Compound 3b, 2-[(4-Acetylphenyl)amino]-2-oxoethyl 4-hydroxybenzoate]: the IC50 in data set [1] stood at 319 ± 31.9 µM.
Still for that read-out and setting: the figure for `CC(=O)c1ccc(NC(=O)COC(=O)c2ccc(O)cc2O)cc1` [Compound 3c, 2-[(4-Acetylphenyl)amino]-2-oxoethyl 2,4-dihydroxybenzoate] is 145 ± 16.7 µM.
Still for that read-out and setting: the figure for `CC(=O)c1ccc(NC(=O)COC(=O)c2ccc(O)c(O)c2)cc1` [Compound 3d, 2-[(4-Acetylphenyl)amino]-2-oxoethyl 3,4-dihydroxybenzoate] is 257 ± 23.4 µM.
As usually defined, the melting point is the temperature, or range, at which the solid turns liquid. For `CC(=O)c1ccc(NC(=O)COC(=O)c2cc(O)cc(O)c2)cc1` [Compound 3e], the melting point lay in the range of 249 to 251 °C. In data set [1], this compound came in with an IC50 of 166 ± 14.2 µM.
In turn, `CC(=O)c1ccc(NC(=O)COC(=O)C=Cc2ccccc2)cc1` [Compound 5a, 2-[(4-Acetylphenyl)amino]-2-oxoethyl cinnamate] registered an IC50 in data set [1] of 63.5 ± 2.5 µM.
Turning to `CC(=O)c1ccc(NC(=O)COC(=O)/C=C/c2ccc(O)cc2)cc1` [Compound 5b, 2-[(4-Acetylphenyl)amino]-2-oxoethyl (E)-3-(4-hydroxyphenyl)acrylate], the melting point lay within 226 to 228 °C. The midpoint of inhibition in data set [1], the IC50, lay at 97.3 ± 5.8 µM.
The term Ki denotes a measure of affinity in units of concentration, obtained from inhibition or displacement. In general, viability refers to a per cent measure of how many cells are alive, often set against a control. As for `CC(=O)c1ccc(NC(=O)COC(=O)/C=C/c2ccc(O)cc2O)cc1` [Compound 5c, 2-[(4-Acetylphenyl)amino]-2-oxoethyl (E)-3-(2,4-dihydroxyphenyl)acrylate], the melting point is 236 to 238 °C. Besides, the IC50 in data set [1] (setting [5]) worked out at 0.0089 ± 0.0004 µM. Moreover, on mushroom tyrosinase, the “type of inhibition (Lineweaver–Burk plot)” value is reported as “competitive inhibitor”, the Ki worked out at 0.01 µM and the “mode of binding (reversibility of enzyme–inhibitor complex)” value was “irreversibly bind; also recorded: irreversible mode of binding”. Also, the viability at 24 h, 24 µg/ml in data set [2] was 33.7%. In addition, in data set [3] (B16F10, 12 µg/ml), the “effect on cell viability (MTT)” value was “safe and no significant effect and nontoxic”. Further, the “effect on cell morphology” value in data set [3] (B16F10, 3, 6, 12 µg/ml) is recorded as “no effect on cell morphology”. Further, the antimelanogenic activity entry in data set [4] (B16F10, 12 µg/mL) is “produced antimelenogenic effects”. For the same compound, in data set [4] (B16F10, 12 µg/ml, 24 h), the “cellular melanin content as compared to control normalized to 100%” value is recorded as 82%.
Turning to `CC(=O)c1ccc(NC(=O)COC(=O)/C=C/c2ccc(Cl)cc2)cc1` [Compound 5d, 2-[(4-Acetylphenyl)amino]-2-oxoethyl-(E)-3-(4-chlorophenyl)acrylate], in data set [1] (setting [5]), the IC50 amounted to 8.26 ± 1.7 µM. On mushroom tyrosinase, the “type of inhibition (Lineweaver–Burk plot)” value is reported as “mixed-type inhibitor”, the Ki was found to be 6 µM and the “mode of binding (reversibility of enzyme–inhibitor complex)” value is reported as “irreversibly bind; also recorded: irreversible inhibitor; also recorded: irreversible mode of binding”.
